Reference: patent publication US9833497B2, “Human originated EGF domain proteins and use of the same” (CHENGDU SOURCEBIO LIMITED-LIABILITY COMPANY, priority 2013, dated 2017)

Columns and labels:
Format in all cases: cell-based
Enterobacter cloacae = test: MIC against Gram-negative bacteria: Enterobacter cloacae; conditions: 5×10^5 CFU/mL; for MIC E. cloacae: two-fold serial dilution
Procedure, shortened: (§1)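 Two-fold serial dilutions of each purified human EGF domain protein, three replicate wells per level, were combined with bacteria at a final 5×10^5 CFU/mL in LB. Cultures were shaken at 175 rpm, 37° C. The MIC was taken as the minimum concentration preventing growth.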

Moraxella catarrhalis = test: MIC against Gram-negative bacteria: Moraxella catarrhalis; conditions: 5×10^5 CFU/mL; for MIC M. catarrhalis: two-fold serial dilution
Procedure, shortened: as §1

Serratia marcescens = test: MIC against Gram-negative bacteria: Serratia marcescens; conditions: 5×10^5 CFU/mL; for MIC S. marcescens: two-fold serial dilution
Procedure, shortened: as §1

Aeromonas hydrophila = test: MIC against Gram-negative bacteria: Aeromonas hydrophila; conditions: 5×10^5 CFU/mL; for MIC A. hydrophila: two-fold serial dilution
Procedure, shortened: as §1

Citrobacter diversus = test: MIC against Gram-negative bacteria: Citrobacter diversus; conditions: 5×10^5 CFU/mL; for MIC C. diversus: two-fold serial dilution
Procedure, shortened: as §1

Proteus mirabilis = test: MIC against Gram-negative bacteria: Proteus mirabilis; conditions: 5×10^5 CFU/mL; for MIC P. mirabilis: two-fold serial dilution
Procedure, shortened: as §1

E. coli BL21 = test: MIC against Gram-negative bacteria: E. coli BL21; conditions: 5×10^5 CFU/mL; for MIC E. coli BL21: two-fold serial dilution
Procedure, shortened: as §1

Klebsiella pneumonia = test: MIC against Gram-negative bacteria: Klebsiella pneumonia; conditions: 5×10^5 CFU/mL; for MIC K. pneumonia: two-fold serial dilution
Procedure, shortened: as §1

Pseudomonas aeruginosa = test: MIC against Gram-negative bacteria: Pseudomonas aeruginosa; conditions: 5×10^5 CFU/mL; for MIC P. aeruginosa: two-fold serial dilution
Procedure, shortened: as §1

E. coli DH5α = test: Antibacterial activity: MIC and growth curve against E. coli DH5α in 96-well plate; conditions: minimal inhibitory concentration against E. coli DH5α; 96-well plate, 5×10^5 CFU/mL, 37° C., judged after 8 h
Procedure, shortened: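 Log-phase bacteria (OD600 ~0.5) resuspended in LB at 5×10^5 CFU/mL, exposed to recombinant protein at 50, 25, 12.5 μg/mL final in triplicate, 37 °C shaking at 175 rpm. OD600 read every 30 min; MIC is lowest concentration showing no growth.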

Proteus vulgaris = test: MIC against Gram-negative bacteria: Proteus vulgaris; conditions: 5×10^5 CFU/mL; for MIC P. vulgaris: two-fold serial dilution
Procedure, shortened: as §1

[1] = E. coli BL21, 10 h cultivation at 37° C.

PRT1120 (DEDECASSPCQHGGRCLQRSDPALYGGVQAAFPGAFSFRHAAGFLCHCPPGFEGADCG; listed as Homo sapiens)
MIC E. cloacae (Enterobacter cloacae; 10 h cultivation at 37° C.): 25 µg/mL
MIC M. catarrhalis (Moraxella catarrhalis; 10 h cultivation at 37° C.): 12.5 µg/mL
MIC S. marcescens (Serratia marcescens; 10 h cultivation at 37° C.): 12.5 µg/mL
MIC A. hydrophila (Aeromonas hydrophila; 10 h cultivation at 37° C.): 12.5 µg/mL
MIC C. diversus (Citrobacter diversus; 10 h cultivation at 37° C.): 50 µg/mL
MIC P. mirabilis (Proteus mirabilis; 10 h cultivation at 37° C.): 50 µg/mL
MIC E. coli BL21 (E. coli BL21; 10 h cultivation at 37° C.): 12.5 µg/mL
MIC K. pneumonia (Klebsiella pneumonia; 10 h cultivation at 37° C.): 50 µg/mL
MIC P. aeruginosa (Pseudomonas aeruginosa; 10 h cultivation at 37° C.): 25 µg/mL
MIC (E. coli DH5α): 25 µg/mL
MIC P. vulgaris (Proteus vulgaris; 10 h cultivation at 37° C.): 12.5 µg/mL

PRT1235 (IGPQCEEMCNGQGSCINGTKCICDPGYSGPTCK; listed as Homo sapiens)
MIC against E. cloacae (Enterobacter cloacae; Enterobacter cloacae, 96-well plate, 37° C., 10 h): 25 µg/mL
MIC against M. catarrhalis (Moraxella catarrhalis; Moraxella catarrhalis, 96-well plate, 37° C., 10 h): 12.5 µg/mL
MIC against S. marcescens (Serratia marcescens; Serratia marcescens, 96-well plate, 37° C., 10 h): 12.5 µg/mL
MIC against A. hydrophila (Aeromonas hydrophila; Aeromonas hydrophila, 96-well plate, 37° C., 10 h): 12.5 µg/mL
MIC against C. diversus (Citrobacter diversus; Citrobacter diversus, 96-well plate, 37° C., 10 h): 12.5 µg/mL
MIC against P. mirabilis (Proteus mirabilis; Proteus mirabilis, 96-well plate, 37° C., 10 h): 12.5 µg/mL
MIC against E. coli BL21 (E. coli BL21; E. coli BL21, 96-well plate, 37° C., 10 h): 12.5 µg/mL
MIC against K. pneumonia (Klebsiella pneumonia; Klebsiella pneumonia, 96-well plate, 37° C., 10 h): 12.5 µg/mL
MIC against P. aeruginosa (Pseudomonas aeruginosa; Pseudomonas aeruginosa, 96-well plate, 37° C., 10 h): 25 µg/mL
MIC (E. coli DH5α): 12.5 µg/mL
MIC against P. vulgaris (Proteus vulgaris; Proteus vulgaris, 96-well plate, 37° C., 10 h): 50 µg/mL

PRT501 (CGCNPVGSASDEPCTGPCVCKENVEGKACDRCKPGFYNLKEKNPRGCSE; listed as Homo sapiens)
MIC against E. cloacae (Enterobacter cloacae; 96-well plate, 37° C., 10 h): 12.5 µg/mL
MIC against M. catarrhalis (Moraxella catarrhalis; 96-well plate, 37° C., 10 h): 25 µg/mL
MIC against S. marcescens (Serratia marcescens; 96-well plate, 37° C., 10 h): 12.5 µg/mL
MIC against A. hydrophila (Aeromonas hydrophila; 96-well plate, 37° C., 10 h): 25 µg/mL
MIC against C. diversus (Citrobacter diversus; 96-well plate, 37° C., 10 h): 12.5 µg/mL
MIC against P. mirabilis (Proteus mirabilis; 96-well plate, 37° C., 10 h): 12.5 µg/mL
MIC against E. coli BL21 (E. coli BL21; 96-well plate, 37° C., 10 h): 25 µg/mL
MIC against K. pneumonia (Klebsiella pneumonia; 96-well plate, 37° C., 10 h): 25 µg/mL
MIC against P. aeruginosa (Pseudomonas aeruginosa; 96-well plate, 37° C., 10 h): 50 µg/mL
MIC (E. coli DH5α): 12.5 µg/mL
MIC against P. vulgaris (Proteus vulgaris; 96-well plate, 37° C., 10 h): 25 µg/mL

PRT751 (LCATGDHDCEQVCISSPGSYTCACHEGFTLNSDGKTCN; listed as Homo sapiens)
MIC (μg/mL) E. cloacae (Enterobacter cloacae; 10 h cultivation at 37° C.): 50 µg/mL
MIC (μg/mL) M. catarrhalis (Moraxella catarrhalis; 10 h cultivation at 37° C.): 25 µg/mL
MIC (μg/mL) S. marcescens (Serratia marcescens; 10 h cultivation at 37° C.): 12.5 µg/mL
MIC (μg/mL) A. hydrophila (Aeromonas hydrophila; 10 h cultivation at 37° C.): 25 µg/mL
MIC (μg/mL) C. diversus (Citrobacter diversus; 10 h cultivation at 37° C.): 12.5 µg/mL
MIC (μg/mL) P. mirabilis (Proteus mirabilis; 10 h cultivation at 37° C.): 50 µg/mL
MIC (μg/mL) E. coli BL21 (E. coli BL21; [1]): 25 µg/mL
MIC (μg/mL) K. pneumonia (Klebsiella pneumonia; 10 h cultivation at 37° C.): 12.5 µg/mL
MIC (μg/mL) P. aeruginosa (Pseudomonas aeruginosa; 10 h cultivation at 37° C.): 50 µg/mL
MIC (E. coli DH5α): 12.5 µg/mL
MIC (μg/mL) P. vulgaris (Proteus vulgaris; 10 h cultivation at 37° C.): 25 µg/mL

PRT1451 (EARWCSECHSNATCTEDEAVTTCTCQEGFTGDGLTCV; listed as Homo sapiens)
MIC against E. cloacae (Enterobacter cloacae; Enterobacter cloacae, 10 h cultivation at 37° C.): 25 µg/mL
MIC against M. catarrhalis (Moraxella catarrhalis; Moraxella catarrhalis, 10 h cultivation at 37° C.): 12.5 µg/mL
MIC against S. marcescens (Serratia marcescens; Serratia marcescens, 10 h cultivation at 37° C.): 12.5 µg/mL
MIC against A. hydrophila (Aeromonas hydrophila; Aeromonas hydrophila, 10 h cultivation at 37° C.): 12.5 µg/mL
MIC against C. diversus (Citrobacter diversus; Citrobacter diversus, 10 h cultivation at 37° C.): 25 µg/mL
MIC against P. mirabilis (Proteus mirabilis; Proteus mirabilis, 10 h cultivation at 37° C.): 12.5 µg/mL
MIC against E. coli BL21 (E. coli BL21; [1]): 12.5 µg/mL
MIC against K. pneumonia (Klebsiella pneumonia; Klebsiella pneumonia, 10 h cultivation at 37° C.): 12.5 µg/mL
MIC against P. aeruginosa (Pseudomonas aeruginosa; Pseudomonas aeruginosa, 10 h cultivation at 37° C.): 25 µg/mL
MIC (E. coli DH5α): 25 µg/mL
MIC against P. vulgaris (Proteus vulgaris; Proteus vulgaris, 10 h cultivation at 37° C.): 12.5 µg/mL

PRT176 (APLVCRAGCSPEHGFCEQPGECRCLEGWTGPLCT; listed as Homo sapiens)
MIC (μg/mL) E. cloacae (Enterobacter cloacae; 10 h cultivation at 37° C.): 25 µg/mL
MIC (μg/mL) M. catarrhalis (Moraxella catarrhalis; 10 h cultivation at 37° C.): 50 µg/mL
MIC (μg/mL) S. marcescens (Serratia marcescens; 10 h cultivation at 37° C.): 25 µg/mL
MIC (μg/mL) A. hydrophila (Aeromonas hydrophila; 10 h cultivation at 37° C.): 12.5 µg/mL
MIC (μg/mL) C. diversus (Citrobacter diversus; 10 h cultivation at 37° C.): 25 µg/mL
MIC (μg/mL) P. mirabilis (Proteus mirabilis; 10 h cultivation at 37° C.): 25 µg/mL
MIC (μg/mL) E. coli BL21 (E. coli BL21; [1]): 12.5 µg/mL
MIC (μg/mL) K. pneumonia (Klebsiella pneumonia; 10 h cultivation at 37° C.): 12.5 µg/mL
MIC (μg/mL) P. aeruginosa (Pseudomonas aeruginosa; 10 h cultivation at 37° C.): 25 µg/mL
MIC (E. coli DH5α): 25 µg/mL
MIC (μg/mL) P. vulgaris (Proteus vulgaris; 10 h cultivation at 37° C.): 12.5 µg/mL

PRT1057 (DIDECEMGVPVCPPASSKCINTEGGYVCRCSEGYQGDGIHCL; listed as Homo sapiens)
MIC E. cloacae (Enterobacter cloacae; 10 h cultivation at 37° C.): 25 µg/mL
MIC M. catarrhalis (Moraxella catarrhalis; 10 h cultivation at 37° C.): 12.5 µg/mL
MIC S. marcescens (Serratia marcescens; 10 h cultivation at 37° C.): 25 µg/mL
MIC A. hydrophila (Aeromonas hydrophila; 10 h cultivation at 37° C.): 50 µg/mL
MIC C. diversus (Citrobacter diversus; 10 h cultivation at 37° C.): 25 µg/mL
MIC P. mirabilis (Proteus mirabilis; 10 h cultivation at 37° C.): 25 µg/mL
MIC E. coli BL21 (E. coli BL21; 10 h cultivation at 37° C.): 50 µg/mL
MIC K. pneumonia (Klebsiella pneumonia; 10 h cultivation at 37° C.): 12.5 µg/mL
MIC P. aeruginosa (Pseudomonas aeruginosa; 10 h cultivation at 37° C.): 25 µg/mL
MIC (E. coli DH5α): 25 µg/mL
MIC P. vulgaris (Proteus vulgaris; 10 h cultivation at 37° C.): 50 µg/mL
